Experimental data as given in US5461057A, “Hydro-ethano-indeno-pyridines” (priority 1994, dated 1995).
pIC50: −log10 of the molar value. Like-named read-outs stand apart in the source and are kept apart here.

Legend:
[1] = tested on: histamine-induced dyspnea; experiment: Bronchodilator (in vivo) Guinea Pig Dyspnea; conditions: oral, one hour before histamine challenge; for responders at 100 mg/kg / DYSP survivors: 100 mg/kg
Description: Unanesthetized guinea pigs (250-350 g), fasted overnight were placed in individual closed aerosol chambers which were connected to a Monoghan Ultrasonic nebulizer. The nebulizer can deliver an ultrasonic fog of uniform particles in a range of 1-8 microns. A 0.1% solution of histamine is aerosolized into the chambers causing the guinea pigs to develop dyspnea. The test drug was given orally one hour before the histamine challenge and the onset of dyspnea was recorded. Saline control animals developed dyspnea within 90-120 seconds of aerosol exposure. […] The data was expressed as the number tested over the number survived. The model was sensitive to bronchodilator and H1 antihistamine activity. Further information relating this test can be obtained from the following two publications which are hereby incorporated by reference: Dungan, K. W. and Lish, P. M. J Allergy 32:139-151 (1961). and Lish, P. M., Robbins, S. I. and Petres E. L. J. Pharmacol. Exp. Therap. 153 L 1538 (1966 ).

[2] = tested on: LOX human melanoma cell adhesion to human fibronectin; experiment: LOX melanoma cell adhesion to fibronectin; format: cell-based; conditions: Homo sapiens, LOX; for inhibition at 10 µM: read-out: % Inhibition at 10 μM; for inhibition at 50 µM: read-out: % Inhibition at 50 μM; for pIC50: Table 4, 1 hour adhesion, read-out: LOX FN IC50
Description: (§1) Adhesion assays were run essentially as described previously (Pai et al., J. Biomed. Res. 2: 53, 1992). 96-well plates were coated with human fibronectin (140 ng/well), human vitronectin (75 ng/well), human collagen I (100 ng/well), human collagen IV (100 ng/well), human fibrinogen (1 μg/well), murine laminin (600 ng/well), or polylysine, and incubated overnight in a humidified 37° C. incubator. Excess fibronectin or other substrate was then removed and 0.2 ml of 2 mg/ml bovine serum albumin (BSA)in Dulbecco's phosphate-buffered saline (DPBS) was added to each well, incubated for 2 hours at 37° C., and removed. LOX human melanoma cells, M27 murine lung carcinoma cells or B16F10 mouse melanoma cells were detached from tissue culture flasks with RPMI medium containing 0.2M urea and 10 mM EDTA, and 0.18 ml of cells were added to each well to a final cell concentration of 1×10^5 cells/well. For inhibition studies 20 μl of 10× compound was added to the wells prior to cell addition. Cells were allowed to adhere for 1 hour at 37° C. The wells were then gently washed twice with 0.2 ml DPBS. The fluorescent dye calcein AM (Molecular Probes, Eugene Oreg.) in DPBS (0.1 ml of 1 μM) was added to each well, and the plates were incubated for 1 hour at room temperature. Adherent cells were quantitated by reading the fluorescence on a Cytofluor 2300 fluorescent plate reader (Millipore) at 485 nm excitation and 530 nm emission.
LOX FN-IC50 value for inhibition of adhesion of LOX human melanoma cells to fibronectin coated on a plastic surface.

[3] = Calcein cytotoxicity assay; format: cell-based; conditions: human, lox melanoma cells; 2 hours, calcein AM assay; read-out: 2 Hr Tox LD50
Description: LOX human melanoma cells were detached from tissue culture flasks with RPMI medium containing 0.2M urea and 10 mM EDTA, and 0.18 ml of cells were added to each well to a final cell concentration of 5×10^4 cells/well. 20 μl of 10× compound was added to the wells prior to cell addition. Cells were incubated with the compound at 37° C. for 1 hour or 5 hour as indicated. Calcein AM in DPBS (0.02 ml of 5 μM) was added to each well, and the plates were incubated for an additional 1 hour at room temperature. Viable cells were quantitated by reading the fluorescence on a Cytofluor 2300 fluorescent plate reader at 485 nm excitation and 530 nm emission.

[4] = tested on: LOX human melanoma cell adhesion to polylysine; experiment: LOX melanoma cell adhesion to polylysine; format: cell-based; conditions: read-out: Poly Lys IC50
Description: as §1

pulmonary resistance = experiment: Pulmonary Resistance in the Anesthetized Rat; format: in vivo; conditions: 0.5 mpk, i.v.; mean of 5 animals; % decrease in pre-drug baseline resistance
Description: Rats (400-500 g) anesthetized with dialurethane were surgically prepared with tracheal and esophageal catheters. These catheters were connected to pressure transducers for recording of air flow, tracheal and esophageal pressures. These pressures formed the basis for measurement of pulmonary resistance. Inhibition of pulmonary resistance is a reflection of bronchodilation.
All compounds were tested i. v. in 5 separate animals. All data are expressed in % decrease in the pre-drug baseline resistance and each number given is the mean of the 5 animals tested.
The model is sensitive to bronchodilator activity.
Further information relating this test can be obtained from the following publications which are hereby incorporated by reference: Comroe et al, J. Appl. Physio. 4:439-44 (1959); Dungan et al J. Pharmacol. Exp. Therap. 164:290-301(1968); and Mead, J. et al. J. Appl. Physio. 5:779-796 (1953).

[5] = Cavia porcellus, 1 h, read-out: DYSP survivors (converted)

Structure (SMILES) | responders at 100 mg/kg [1, 5] | inhibition at 10 µM [2] | inhibition at 50 µM [2] | inhibition at 10 µM ([2]; 1 h) | DYSP survivors [1] | pIC50 [2] | CC50 at 2 h [3] | pIC50 [4] | Pulmonary Resistance in Rats, % Inhibition (pulmonary resistance) | responders at 50 mg/kg ([1]; Cavia porcellus, 1 h, 50 mg/kg, read-out: DYSP survivors (converted))
COc1ccc(C2(O)c3c(Cl)cccc3C3C4CCC(CC32)N4C)cc1 (stereo not shown) [BBB] | 33.3% | -11.8% | 5.6% | – | – | – | – | – | – | –
CN1C2CCC1C1=C(C2)C(c2ccccc2)c2cc(O)ccc21 (stereo not shown) [BB] | – | – | 6.5% | -38.2% | – | – | – | – | – | –
COc1ccc(C2(O)c3cc(F)ccc3C3C4CCC(CC32)N4C)cc1 (stereo not shown) [CCC] | 66.7% | – | – | – | – | – | – | – | – | –
CN1C2CCC1C1C(=C(c3ccc(F)cc3)c3cc(Cl)ccc31)C2 (stereo not shown) [Compound E] | – | 49.5% | 100% | – | 0/3 | 5.21 | 21.8 µM | 4.34 | – | –
CN1C2CCC1C1C(=C(c3cccc(F)c3)c3cc(F)ccc31)C2 (stereo not shown) [Compound G] | – | 38.1% | 101% | – | 1/3 | 5.28 | 29.5 µM | 4.20 | – | –
CN1C2CCC1C1C(=C(c3ccc(F)cc3)c3cc(F)ccc31)C2 (stereo not shown) [Compound H] | – | 37.5% | 101% | – | 1/3 | 5.19 | 36.9 µM | 4.63 | 20% | –
CN1C2CCC1C1C(=C(c3ccc(Cl)c(C(F)(F)F)c3)c3ccccc31)C2 (stereo not shown) [Compound N] | – | 7% | 101% | – | 0/3 | 4.71 | 23.8 µM | 4.60 | 33% | –
CN1C2CCC1C1C(=C(c3cccc(Cl)c3)c3ccccc31)C2 (stereo not shown) [D] | – | 56.5% | 101% | – | 1/3 | 5.13 | 34.6 µM | 4.14 | – | –
CN1C2CCC1C1=C(C2)C(c2cccs2)c2ccccc21 (stereo not shown) [GGG] | – | -27.6% | 64.4% | – | – | – | – | – | – | –
COc1ccc(C2c3ccccc3C3C2CC2CCC3N2C)cc1 (stereo not shown) [GG] | – | 7.1% | 39.1% | – | 2/3 | – | – | – | – | –
CN1C2CCC1C1c3ccccc3C(O)(c3ccc(Cl)cc3)C1C2 (stereo not shown) [HH] | 33.3% | 2.5% | 36.9% | – | – | – | – | – | – | –
CN1C2CCC1C1c3ccc(Cl)cc3C(O)(c3ccc(F)cc3)C1C2 (stereo not shown) [II] | 100% | 5.4% | 34.8% | – | – | – | – | – | – | –
CN1C2CCC1C1C(=C(c3ccccc3)c3cc(F)ccc31)C2 (stereo not shown) [I] | – | 35.6% | 100% | – | 1/3 | 5.12 | 55.9 µM | 4.64 | – | –
CSc1ccc(C2(O)c3ccccc3C3C4CCC(CC32)N4C)cc1 (stereo not shown) [KK] | – | 7.2% | 32.8% | – | – | – | – | – | – | 0%
